Laboratory results from ChEMBL document CHEMBL4359935, “Selective toxicity of chrysin on mitochondria isolated from liver of a HCC rat model” (Bioorg Med Chem, 2019).
Active and inactive are the calls of the source. The calls are words filed in the database; no cut-off is given here.

Assays:
[1] = target: Succinate dehydrogenase [ubiquinone] flavoprotein subunit, mitochondrial (Rattus norvegicus) (UniProt Q920L2); experiment: Inhibition of SDH in HCC model Sprague-Dawley rat hepatocyte mitochondria at 10 to 40 uM incubated for 40 mins by MTT assay
[2] = Effect on SDH activity in Sprague-Dawley rat hepatocyte mitochondria at 10 to 40 uM incubated for 40 mins by MTT assay; type: ADME; conditions: hepatocytes
Rattus norvegicus [3] = organism: Rattus norvegicus; experiment: Induction of ROS production in HCC model Sprague-Dawley rat hepatocyte mitochondria at 10 to 40 uM incubated upto 60 mins by DCFH probe based fluorescence spectrophotometer; type: functional
Rattus norvegicus [4] = organism: Rattus norvegicus; experiment: Induction of mitochondrial membrane potential disruption in HCC model Sprague-Dawley rat hepatocyte assessed as collapsed mitochondrial membrane potential at 10 to 40 uM incubated upto 60 mins by Rhodamine 123 probe based fluorescence spectrophotometry; type: functional
[5] = Induction of ROS production in Sprague-Dawley rat hepatocyte mitochondria at 10 to 40 uM incubated upto 60 mins by DCFH probe based fluorescence spectrophotometry; conditions: hepatocytes, 1 h
[6] = Induction of mitochondrial membrane potential disruption in Sprague-Dawley rat hepatocyte assessed as collapsed mitochondrial membrane potential at 10 to 40 uM incubated upto 60 mins by Rhodamine 123 probe based fluorescence spectrophotometry; conditions: hepatocytes, 1 h
Rattus norvegicus [7] = organism: Rattus norvegicus; experiment: Induction of mitochondrial swelling in HCC model Sprague-Dawley rat hepatocyte at 10 to 40 uM; type: functional
[8] = Induction of mitochondrial swelling in Sprague-Dawley rat hepatocyte at 10 to 40 uM; conditions: hepatocytes
Hepatocyte [9] = experiment: Induction of apoptosis in isolated HCC model Sprague-Dawley rat hepatocytes assessed as increase in cytochrome C release at 20 uM by ELISA relative to control; type: functional
Hepatocyte [10] = experiment: Induction of apoptosis in isolated HCC model Sprague-Dawley rat hepatocytes assessed as increase in cytochrome C release at 20 uM in presence of CsA by ELISA; type: functional, cell-based
Hepatocyte [11] = experiment: Induction of apoptosis in isolated HCC model Sprague-Dawley rat hepatocytes assessed as increase in cytochrome C release at 20 uM in presence of BHT by ELISA; type: functional, cell-based
Hepatocyte [12] = experiment: Induction of apoptosis in isolated HCC model Sprague-Dawley rat hepatocytes assessed as increase in caspase 3 activity at 12 uM relative to control; type: functional

Succinate dehydrogenase [ubiquinone] flavoprotein subunit, mitochondrial (Rattus norvegicus), sequence (Q920L2 whole entry): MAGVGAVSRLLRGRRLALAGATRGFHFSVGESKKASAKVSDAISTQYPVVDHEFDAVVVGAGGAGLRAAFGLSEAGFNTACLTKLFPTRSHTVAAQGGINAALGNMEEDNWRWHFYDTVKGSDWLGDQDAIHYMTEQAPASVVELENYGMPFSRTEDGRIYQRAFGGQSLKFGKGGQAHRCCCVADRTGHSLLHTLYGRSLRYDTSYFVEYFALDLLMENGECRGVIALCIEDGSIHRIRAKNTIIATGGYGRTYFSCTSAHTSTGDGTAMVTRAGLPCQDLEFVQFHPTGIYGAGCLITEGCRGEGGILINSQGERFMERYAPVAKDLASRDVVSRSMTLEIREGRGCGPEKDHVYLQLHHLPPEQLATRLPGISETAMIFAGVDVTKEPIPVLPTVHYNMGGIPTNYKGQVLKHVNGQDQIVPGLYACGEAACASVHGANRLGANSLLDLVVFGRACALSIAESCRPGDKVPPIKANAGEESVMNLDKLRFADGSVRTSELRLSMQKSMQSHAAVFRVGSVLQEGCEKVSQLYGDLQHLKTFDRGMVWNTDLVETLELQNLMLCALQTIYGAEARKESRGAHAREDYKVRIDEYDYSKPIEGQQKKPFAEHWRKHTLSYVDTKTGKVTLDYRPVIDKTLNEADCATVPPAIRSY

inhibition [1]: Active
Compound: O=c1cc(-c2ccccc2)oc2cc(O)cc(O)c12 [CHRYSIN]
Activity [2]: Non-Toxic | Activity (Rattus norvegicus [3]): Active | Activity (Rattus norvegicus [4]): Active | Activity [5]: Non-Toxic | Activity [6]: Non-Toxic | Activity (Rattus norvegicus [7]): Active | Activity [8]: Non-Toxic | fold change (FC) (Hepatocyte [9]): 1.6 | Activity (Hepatocyte [10]): inactive | Activity (Hepatocyte [11]): inactive | fold change (FC) (Hepatocyte [12]): 2.4
